Results published in patent publication US20080108641A1, “Compounds for treating inflammatory disorders, demyelinating disdorders and cancers” (priority 2006, published 2008).
Read-outs that look alike come from different tables or passages of the source.

What was measured:
[1] = tested on: colorectal cancer cell lines (HT29 & HCT116); test: Microarray differential gene expression (CodeLink Human Whole Genome Bioarrays); format: cell-based
[2] = tested on: Experimental Autoimmune Encephalomyelitis (EAE); conditions: for mean clinical severity score: 20 mg/kg i.p. once a week
[3] = tested on: IL-4; test: Mediator release, IL-4 (Con A-stimulated PBML, sandwich ELISA); format: cell-based; conditions: Homo sapiens
Description: In this experiment, test compound and/or vehicle were preincubated with human peripheral blood mononuclear leukocyte (PBML, 1×10^6/ml) in RPMI buffer pH 7.4 for 2 hours. Concanavalin A (Con A, 20 μg/ml) was then added to stimulate the cells overnight in 5% CO2 at 37° C. IL-4 and IL-10 cytokine levels in the conditioned medium were then quantified using a sandwich ELISA kit. Compounds were screened at 10, 1, 0.1, 0.01 and 0.001 μM.

[4] = 20 mg/kg i.p. weekly for 4, 6 and 8 weeks

SMILES: CCN(CC)CCNc1ccc2ncn3c4ccc(O)cc4c(=O)c1c23 [Symadex™]
- MEAN FOLD CHANGE OVER CONTROL ([1]; gene MSLN): −17.46
- MEAN FOLD CHANGE OVER CONTROL ([1]; gene MT1A): −16.21
- MEAN FOLD CHANGE OVER CONTROL ([1]; gene MT2A): −2.09
- MEAN FOLD CHANGE OVER CONTROL ([1]; gene MTIF2): −59.05
- MEAN FOLD CHANGE OVER CONTROL ([1]; gene MXD3): −2.66
- MEAN FOLD CHANGE OVER CONTROL ([1]; gene MYBPC2): −21.22
- MEAN FOLD CHANGE OVER CONTROL ([1]; gene MYO15A): −50.59
- MEAN FOLD CHANGE OVER CONTROL ([1]; gene NCF1): −33.67
- MEAN FOLD CHANGE OVER CONTROL ([1]; gene NCF2): −21.83
- MEAN FOLD CHANGE OVER CONTROL ([1]; gene NDUFA6): −2.51
- MEAN FOLD CHANGE OVER CONTROL ([1]; gene NDUFB3): −15.58
- MEAN FOLD CHANGE OVER CONTROL ([1]; gene NDUFV3): −10.52
- MEAN FOLD CHANGE OVER CONTROL ([1]; gene NEB): −6.89
- MEAN FOLD CHANGE OVER CONTROL ([1]; gene NFATC1): −16.69
- MEAN FOLD CHANGE OVER CONTROL ([1]; gene NFKBIB): −2.01
- MEAN FOLD CHANGE OVER CONTROL ([1]; gene NMI): −2.41
- MEAN FOLD CHANGE OVER CONTROL ([1]; gene NMU): −2.12
- MEAN FOLD CHANGE OVER CONTROL ([1]; gene NR0B1): −15.94
- MEAN FOLD CHANGE OVER CONTROL ([1]; gene NR2E1): −54.82
- MEAN FOLD CHANGE OVER CONTROL ([1]; gene NR2E3): −14.89
- MEAN FOLD CHANGE OVER CONTROL ([1]; gene NRG1): −17.54
- MEAN FOLD CHANGE OVER CONTROL ([1]; gene NT5C3): −2.08
- MEAN FOLD CHANGE OVER CONTROL ([1]; gene NT5E): −17.10
- MEAN FOLD CHANGE OVER CONTROL ([1]; gene NTHL1): −2.34
- MEAN FOLD CHANGE OVER CONTROL ([1]; gene NUCKS): −2.02
- MEAN FOLD CHANGE OVER CONTROL ([1]; gene NUDT1): −1.89
- MEAN FOLD CHANGE OVER CONTROL ([1]; gene NUP107): −2.68
- MEAN FOLD CHANGE OVER CONTROL ([1]; gene OLR1): −16.33
- MEAN FOLD CHANGE OVER CONTROL ([1]; gene OXCT): −2.68
- MEAN FOLD CHANGE OVER CONTROL ([1]; gene PAFAH1B1): −12.85
- MEAN FOLD CHANGE OVER CONTROL ([1]; gene PAFAH1B2): −2.25
- MEAN FOLD CHANGE OVER CONTROL ([1]; gene PAICS): −2.03
- MEAN FOLD CHANGE OVER CONTROL ([1]; gene PCDH7): −19.65
- MEAN FOLD CHANGE OVER CONTROL ([1]; gene PCSK2): −16.89
- MEAN FOLD CHANGE OVER CONTROL ([1]; gene PDCD5): −2.21
- MEAN FOLD CHANGE OVER CONTROL ([1]; gene PDE11A): −16.85
- MEAN FOLD CHANGE OVER CONTROL ([1]; gene PECAM1): −17.53
- MEAN FOLD CHANGE OVER CONTROL ([1]; gene PFKL): −10.55
- MEAN FOLD CHANGE OVER CONTROL ([1]; gene PHAX): −2.17
- MEAN FOLD CHANGE OVER CONTROL ([1]; gene PHF5A): −2.95
- MEAN FOLD CHANGE OVER CONTROL ([1]; gene PIR51): −3.73
- MEAN FOLD CHANGE OVER CONTROL ([1]; gene PLK4): −2.39
- MEAN FOLD CHANGE OVER CONTROL ([1]; gene PLXNA3): −8.04
- fold down-regulation of SULT4A1 ([1]; gene SULT4A1, text statement): ~300 fold
- fold down-regulation of the SYNE1 spectrin repeats ([1]; gene SYNE1, text statement): 1500 fold
- mean clinical severity score ([2]; 4-week treatment cycle (n=14), starting mean 1.3, p 0.0001 vs control): 0.7
- mean clinical severity score ([2]; 6 week treatment (n=3), control 1.3, p 0.009): 0.3
- B-cell counts vs controls [2, 4]: no significant deviation from controls
- CD4 and CD8 T-cell populations [2, 4]: Neither are CD4 or CD8 T-cell populations modulated
- total T-cell counts vs vehicle control [2, 4]: no difference
- disease course after drug withdrawal ([2]; 20 mg/kg i.p. weekly for 4 weeks, then 4 weeks vehicle, p 0.002 vs control): remained in stable disease
- clinical scores / disease progression ([2]; 20 mg/kg i.p., 2 doses 72 hours apart, from 30 days post immunization (n=3), p 0.002 vs control): reversed the progression of disease and restored baseline clinical scores
- clinical scores at end of treatment course ([2]; 20 mg/kg i.p., 8 consecutive weekly doses (n=3), p 0.0006 vs control): converges on baseline
- time to clinical recovery from the start of treatment ([2]; 40 mg/kg i.p. once a week for 4 weeks): ≤ 2 weeks
- clinical progress and pathological findings vs vehicle control ([2]; 20 and 40 mg/kg i.p. once a week for 4 weeks from day 40, p 0.004 (20 mg/kg), 0.001 (40 mg/kg)): profound and substantial change
- inflammatory cells in chronic demyelinated plaques ([2]; after prolonged treatment): virtually no remaining inflammatory cells
- endogenous remyelination ([2]; chronic-progressive model, after disease progression): effective in permitting endogenous remyelination
- scores for meningeal inflammation and perivascular infiltration ([2]; treated groups vs vehicle controls, weekly dosing for 4 weeks): more severe in the treated groups than in vehicle controls
- inhibition at 0.001 µM ([3]; 1 nM, read-out: % Growth Inhibition): 8%
- inhibition at 0.01 µM ([3]; 10 nM, read-out: % Growth Inhibition): 7%
- inhibition at 0.1 µM ([3]; 0.1 μM, read-out: % Growth Inhibition): 2%
- inhibition at 1 µM ([3]; 1 μM, read-out: % Growth Inhibition): -9%
- inhibition at 10 µM ([3]; 10 μM, read-out: % Growth Inhibition): 105%
- IC50 ([3]; IL-4 release): 3.33 µM
